Experimental data from patent publication US6358921B1, “Antimicrobial peptide compositions and method” (priority 1996, dated 2002).
Like-named read-outs stand apart in the source and are kept apart here.

How the values were obtained:
E. faecalis = type: cell-based, Enterococcus faecalis
Method in brief: (§1)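 Antimicrobial activity is measured by a liquid-broth assay in LB at 37 °C overnight, starting from 5×10^5 CFU/mL. Values are minimal inhibitory concentrations, i.e. the lowest concentration that stops growth.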

C. xeroses = type: cell-based, Corynebacterium xerosis
Method in brief: (§2)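 Liquid-broth rather than agar method. Organisms: clinical isolates (C. albicans, S. epidermidis), environmental C. xerosis, wild-type E. coli UB1005.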

E. coli DC2 = type: cell-based, Escherichia coli; details: DC2
Method in brief: (§3)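 Peptides are tested by liquid microdilution against strains such as Salmonella C610, E. faecalis ATCC 29212 and sensitive P. aeruginosa H188, with 5×10^5 CFU/mL in LB, overnight at 37 °C. Where a therapeutic index is given, it divides the 4 h complete-hemolysis concentration by the MIC.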

E. coli UB1005 = type: cell-based, Escherichia coli; details: UB1005
Method in brief: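 Growth inhibition was scored after overnight culture at 37 °C in LB with peptide serial dilutions (inoculum 5×10^5 CFU/mL); MICs were the lowest inhibitory concentrations. Test strains were E. coli UB1005 (wild type), C. xerosis (environmental), and C. albicans and S. epidermidis (clinical isolates).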

[1] = Displacement of dansyl-polymyxin from LPS; type: binding, P. aeruginosa; details: read-out: LPS binding affinity: peptide concentration to displace 50% of dansyl-polymyxin B from LPS; Tables 1, 4, 7
Method in brief: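 Peptides titrated into 3 μg/mL P. aeruginosa LPS with 2.5 μM dansyl-polymyxin (~90% site saturation) in 5 mM sodium HEPES, pH 7.0; fluorescence decrease recorded. I50 (50% probe displacement) taken from the x-intercept of a double-reciprocal plot of percent inhibition versus inhibitor concentration.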

P. aeruginosa H188 = type: cell-based, Pseudomonas aeruginosa
Method in brief: as §1

human erythrocytes = experiment: Hemolytic activity; type: cell-based
Description: Serial dilutions of the peptides in saline were prepared in round bottom microtitre plates using 100 μL volumes. Red blood cells were diluted with saline to 1/25 packed volume of cells and 50 μL added to each well. Plates were incubated with rocking at 37° C., and the concentration required for complete lysis determined visually after 4 h.

C. Albicans = type: cell-based, Candida albicans
Method in brief: as §2

B. subtilis = type: cell-based, Bacillus subtilis
Method in brief: as §1

S. typhinurium C587 = type: cell-based, Salmonella typhinurium
Method in brief: as §1

S. typhinurium C610 = type: cell-based, Salmonella typhinurium
Method in brief: as §1

S. epidermidis = type: cell-based, Staphylococcus epidermidis
Method in brief: as §2

P. aeruginosa H187 = type: cell-based, Pseudomonas aeruginosa
Method in brief: as §3

S. aureus K147 = type: cell-based, Staphylococcus aureus
Method in brief: (§4)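 Minimum inhibitory concentrations come from a broth rather than agar assay, using LB medium, a final inoculum of 5×10^5 CFU/mL and overnight incubation at 37 °C. Values are in μg/ml.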

S. aureus SAP0017 = type: cell-based, Staphylococcus aureus
Method in brief: as §4

## CC(C)C[C@@H]1NC(=O)[C@H](CCCCN)NC(=O)[C@H](C(C)C)NC(=O)[C@@H]2CCCN2C(=O)[C@@H](Cc2ccccc2)NC(=O)[C@H](CC(C)C)NC(=O)[C@H](CCCCN)NC(=O)[C@H](C(C)C)NC(=O)[C@H](CCCCN)NC(=O)[C@H](CC(C)C)NC(=O)[C@@H]2CCCN2C(=O)[C@@H](Cc2ccccc2)NC(=O)[C@H](C(C)C)NC(=O)[C@@H](CCCCN)NC1=O [Y2/F2]
E. faecalis
  Minimum Inhibitory Concentration (activity): 6.2 µg/mL
C. xeroses
  Minimum Inhibitory Concentration (activity): 1.5 µg/mL
E. coli DC2
  Minimum Inhibitory Concentration (activity): 1.5 µg/mL
E. coli UB1005
  Minimum Inhibitory Concentration (activity): 6.2 µg/mL
[1]
  IC50: 59 µM
P. aeruginosa H188; H188
  Minimum Inhibitory Concentration (activity): 3.1 µg/mL
Human erythrocytes
  Hemolytic activity: peptide concentration for 100% lysis of human erythrocytes: 40 µg/mL
C. Albicans
  Minimum Inhibitory Concentration (activity): 3.1 µg/mL
B. subtilis
  Minimum Inhibitory Concentration (activity): 12.5 µg/mL
S. typhinurium C587
  Minimum Inhibitory Concentration (activity): 9 µg/mL
S. typhinurium C610
  Minimum Inhibitory Concentration (activity): 3.1 µg/mL
S. epidermidis
  Minimum Inhibitory Concentration (activity): 3.1 µg/mL
P. aeruginosa H187; H187
  Minimum Inhibitory Concentration (activity): 17 µg/mL
S. aureus K147
  Minimum Inhibitory Concentration (activity): 12.5 µg/mL
S. aureus SAP0017
  Minimum Inhibitory Concentration (activity): 9 µg/mL

## CC(C)C[C@@H]1NC(=O)[C@H](C(C)C)NC(=O)[C@H](CC(C)C)NC(=O)[C@@H]2CCCN2C(=O)[C@@H](Cc2ccc(O)cc2)NC(=O)[C@H](C(C)C)NC(=O)[C@H](CC(C)C)NC(=O)[C@H](C(C)C)NC(=O)[C@H](CCCCN)NC(=O)[C@H](CCCCN)NC(=O)[C@@H]2CCCN2C(=O)[C@@H](Cc2ccc(O)cc2)NC(=O)[C@H](CCCCN)NC(=O)[C@H](CCCCN)NC1=O [GS14napol]
E. faecalis
  Minimum Inhibitory Concentration (activity): 75 µg/mL
C. xeroses
  Minimum Inhibitory Concentration (activity): 1.2 µg/mL
E. coli DC2
  Minimum Inhibitory Concentration (activity): 4 µg/mL
E. coli UB1005
  Minimum Inhibitory Concentration (activity): 18 µg/mL
[1]
  IC50: 98 µM
P. aeruginosa H188; H188
  Minimum Inhibitory Concentration (activity): 9 µg/mL
Human erythrocytes
  Hemolytic activity: peptide concentration for 100% lysis of human erythrocytes: 800 µg/mL
C. Albicans
  Minimum Inhibitory Concentration (activity): 37 µg/mL
B. subtilis
  Minimum Inhibitory Concentration (activity): >200 µg/mL
S. typhinurium C587
  Minimum Inhibitory Concentration (activity): 50 µg/mL
S. typhinurium C610
  Minimum Inhibitory Concentration (activity): 25 µg/mL
S. epidermidis
  Minimum Inhibitory Concentration (activity): 25 µg/mL
P. aeruginosa H187; H187
  Minimum Inhibitory Concentration (activity): 50 µg/mL
S. aureus K147
  Minimum Inhibitory Concentration (activity): >200 µg/mL
S. aureus SAP0017
  Minimum Inhibitory Concentration (activity): 200 µg/mL

## CC(C)C[C@@H]1NC(=O)[C@H](CCCCN)NC(=O)[C@H](CC(C)C)NC(=O)[C@@H]2CCCN2C(=O)[C@@H](Cc2ccc(O)cc2)NC(=O)[C@H](CC(C)C)NC(=O)[C@@H](CCCCN)NC(=O)[C@H](CC(C)C)NC(=O)[C@H](CCCCN)NC(=O)[C@H](CC(C)C)NC(=O)[C@@H]2CCCN2C(=O)[C@@H](Cc2ccc(O)cc2)NC(=O)[C@H](CC(C)C)NC(=O)[C@H](CCCCN)NC1=O [V3/L3]
E. faecalis
  Minimum Inhibitory Concentration (activity): 1.5 µg/mL
C. xeroses
  Minimum Inhibitory Concentration (activity): 1 µg/mL
E. coli DC2
  Minimum Inhibitory Concentration (activity): 3.1 µg/mL
E. coli UB1005
  Minimum Inhibitory Concentration (activity): 6.2 µg/mL
[1]
  IC50: 46 µM
P. aeruginosa H188; H188
  Minimum Inhibitory Concentration (activity): 3.1 µg/mL
Human erythrocytes
  Hemolytic activity: peptide concentration for 100% lysis of human erythrocytes: 25 µg/mL
C. Albicans
  Minimum Inhibitory Concentration (activity): 4 µg/mL
B. subtilis
  Minimum Inhibitory Concentration (activity): 9 µg/mL
S. typhinurium C587
  Minimum Inhibitory Concentration (activity): 100 µg/mL
S. typhinurium C610
  Minimum Inhibitory Concentration (activity): 15 µg/mL
S. epidermidis
  Minimum Inhibitory Concentration (activity): 1.5 µg/mL
P. aeruginosa H187; H187
  Minimum Inhibitory Concentration (activity): 100 µg/mL
S. aureus K147
  Minimum Inhibitory Concentration (activity): 25 µg/mL
S. aureus SAP0017
  Minimum Inhibitory Concentration (activity): 12.5 µg/mL

## CC(C)C[C@@H]1NC(=O)[C@H](CCCCN)NC(=O)[C@H](CC(C)C)NC(=O)[C@@H]2CCCN2C(=O)[C@@H](Cc2ccccc2)NC(=O)[C@H](CC(C)C)NC(=O)[C@@H](CCCCN)NC(=O)[C@H](CC(C)C)NC(=O)[C@H](CCCCN)NC(=O)[C@H](CC(C)C)NC(=O)[C@@H]2CCCN2C(=O)[C@@H](Cc2ccccc2)NC(=O)[C@H](CC(C)C)NC(=O)[C@H](CCCCN)NC1=O [Y2/F2 V3/L3]
E. faecalis
  Minimum Inhibitory Concentration (activity): 1.5 µg/mL
C. xeroses
  Minimum Inhibitory Concentration (activity): 1 µg/mL
E. coli DC2
  Minimum Inhibitory Concentration (activity): 2 µg/mL
E. coli UB1005
  Minimum Inhibitory Concentration (activity): 9 µg/mL
[1]
  IC50: 25 µM
P. aeruginosa H188; H188
  Minimum Inhibitory Concentration (activity): 3.1 µg/mL
Human erythrocytes; Tables 1, 4, 7
  Hemolytic activity: peptide concentration for 100% lysis of human erythrocytes: 12.5 µg/mL
C. Albicans
  Minimum Inhibitory Concentration (activity): 3.1 µg/mL
B. subtilis
  Minimum Inhibitory Concentration (activity): 6.2 µg/mL
S. typhinurium C587
  Minimum Inhibitory Concentration (activity): 35 µg/mL
S. typhinurium C610
  Minimum Inhibitory Concentration (activity): 12.5 µg/mL
S. epidermidis
  Minimum Inhibitory Concentration (activity): 2 µg/mL
P. aeruginosa H187; H187
  Minimum Inhibitory Concentration (activity): 12.5 µg/mL
S. aureus K147
  Minimum Inhibitory Concentration (activity): 9 µg/mL
S. aureus SAP0017
  Minimum Inhibitory Concentration (activity): 9 µg/mL

## CC(C)[C@@H]1NC(=O)[C@H](CCCCN)NC(=O)[C@H](C)NC(=O)[C@@H]2CCCN2C(=O)[C@@H](Cc2ccc(O)cc2)NC(=O)[C@H](C(C)C)NC(=O)[C@@H](CCCCN)NC(=O)[C@H](C)NC(=O)[C@H](CCCCN)NC(=O)[C@H](C(C)C)NC(=O)[C@@H]2CCCN2C(=O)[C@@H](Cc2ccc(O)cc2)NC(=O)[C@H](C)NC(=O)[C@H](CCCCN)NC1=O [L3/A3]
E. faecalis
  Minimum Inhibitory Concentration (activity): >200 µg/mL
C. xeroses
  Minimum Inhibitory Concentration (activity): 100 µg/mL
E. coli DC2
  Minimum Inhibitory Concentration (activity): 200 µg/mL
E. coli UB1005
  Minimum Inhibitory Concentration (activity): 200 µg/mL
[1]
  IC50: 243 µM
P. aeruginosa H188; H188
  Minimum Inhibitory Concentration (activity): 75 µg/mL
Human erythrocytes
  Hemolytic activity: peptide concentration for 100% lysis of human erythrocytes: >800 µg/mL
C. Albicans
  Minimum Inhibitory Concentration (activity): >200 µg/mL
B. subtilis
  Minimum Inhibitory Concentration (activity): >200 µg/mL
S. typhinurium C587
  Minimum Inhibitory Concentration (activity): >200 µg/mL
S. typhinurium C610
  Minimum Inhibitory Concentration (activity): 100 µg/mL
S. epidermidis
  Minimum Inhibitory Concentration (activity): >200 µg/mL
P. aeruginosa H187; H187
  Minimum Inhibitory Concentration (activity): 200 µg/mL
S. aureus K147
  Minimum Inhibitory Concentration (activity): >200 µg/mL
S. aureus SAP0017
  Minimum Inhibitory Concentration (activity): >200 µg/mL

## CC(C)C[C@@H]1NC(=O)[C@H](CCCCN)NC(=O)[C@H](C(C)C)NC(=O)[C@@H]2CCCN2C(=O)[C@@H](Cc2ccc(O)cc2)NC(=O)[C@H](CCCCN)NC(=O)[C@H](CC(C)C)NC(=O)[C@H](C(C)C)NC(=O)[C@H](CCCCN)NC(=O)[C@H](CC(C)C)NC(=O)[C@@H]2CCCN2C(=O)[C@@H](Cc2ccc(O)cc2)NC(=O)[C@H](CCCCN)NC(=O)[C@H](C(C)C)NC1=O [GS14na]
E. faecalis; E. faecalis
  Minimum Inhibitory Concentration (activity): 200 µg/mL
C. xeroses; C. xeroses
  Minimum Inhibitory Concentration (activity): 1.5 µg/mL
E. coli DC2
  Minimum Inhibitory Concentration (activity): 62 µg/mL
E. coli UB1005
  Minimum Inhibitory Concentration (activity): 37 µg/mL
P. aeruginosa H188; P. aeruginosa H188
  Minimum Inhibitory Concentration (activity): 18 µg/mL
Human erythrocytes
  Hemolytic activity: peptide concentration for 100% lysis of human erythrocytes: >800 µg/mL
C. Albicans; C. Albicans
  Minimum Inhibitory Concentration (activity): 100 µg/mL
B. subtilis; B. subtilis
  Minimum Inhibitory Concentration (activity): >200 µg/mL
S. typhinurium C587
  Minimum Inhibitory Concentration (activity): 100 µg/mL
S. typhinurium C610
  Minimum Inhibitory Concentration (activity): 12.5 µg/mL
S. epidermidis; S. epidermidis
  Minimum Inhibitory Concentration (activity): 50 µg/mL
P. aeruginosa H187; P. aeruginosa H187
  Minimum Inhibitory Concentration (activity): 75 µg/mL
S. aureus K147
  Minimum Inhibitory Concentration (activity): >200 µg/mL
S. aureus SAP0017
  Minimum Inhibitory Concentration (activity): 200 µg/mL

## CC(C)C[C@@H]1NC(=O)[C@H](CCCCN)NC(=O)[C@H](C(C)C)NC(=O)[C@H](CCCCN)NC(=O)[C@@H]2CCCN2C(=O)[C@@H](Cc2ccc(O)cc2)NC(=O)[C@H](CCCCN)NC(=O)[C@H](CC(C)C)NC(=O)[C@H](CCCCN)NC(=O)[C@@H](C(C)C)NC(=O)[C@H](CCCCN)NC(=O)[C@@H]2CCCN2C(=O)[C@@H](Cc2ccc(O)cc2)NC(=O)[C@H](CCCCN)NC1=O [GS14invV2]
E. faecalis
  Minimum Inhibitory Concentration (activity): >200 µg/mL
C. xeroses
  Minimum Inhibitory Concentration (activity): 6.2 µg/mL
E. coli DC2
  Minimum Inhibitory Concentration (activity): 50 µg/mL
E. coli UB1005
  Minimum Inhibitory Concentration (activity): 25 µg/mL
[1]
  IC50: 71 µM
P. aeruginosa H188; H188
  Minimum Inhibitory Concentration (activity): 9 µg/mL
Human erythrocytes
  Hemolytic activity: peptide concentration for 100% lysis of human erythrocytes: 800 µg/mL
C. Albicans
  Minimum Inhibitory Concentration (activity): 200 µg/mL
B. subtilis
  Minimum Inhibitory Concentration (activity): >200 µg/mL
S. typhinurium C587
  Minimum Inhibitory Concentration (activity): 200 µg/mL
S. typhinurium C610
  Minimum Inhibitory Concentration (activity): 37 µg/mL
S. epidermidis
  Minimum Inhibitory Concentration (activity): 100 µg/mL
P. aeruginosa H187; H187
  Minimum Inhibitory Concentration (activity): 9 µg/mL
S. aureus K147
  Minimum Inhibitory Concentration (activity): >200 µg/mL
